# Measured values: BindingDB's records for doi:10.1111/cbdd.12751 (Shandong University, 2016)
# Molecular target: Gag-Pol polyprotein (Human immunodeficiency virus type 1 group M subtype B (isolate NY5), UniProt P12497)
# Test: HIV-1 RT Inhibition Assay
# Conditions: 37 °C
# Experimental: A reverse transcriptase (RT) assay kit produced by Roche was selected for the RT inhibition assay. All the reagents for performing the RT reaction came with the kit, and the ELISA procedures for RT inhibition assay were carried out following the description in the kit protocol. Briefly, the reaction mixture containing template/primer complex, viral nucleotides (dNTPs), and RT in the incubation buffer with or without inhibitors was incubated for 1 h at 37 °C. After that, the reaction mixture was transferred to a streptavidincoated microtiter plate and incubated for another 1 h at 37 °C to make sure that retranscriptional cDNA chain consisted of biotin-labeled dNTPs bound to streptavidin. Then, unbound dNTPs were removed using washing buffer and anti-DIG-POD working solution was added. After incubation for 1 h at 37 °C, the DIG-labeled dNTPs incorporated into cDNA were bound to the anti-DIG-POD antibody. The unbound anti-DIG-PODs were removed.
row,SMILES,IC50 [µM]
1,Cc1cc(C#N)cc(C)c1Oc1nc(Nc2ccc(C#N)cc2)nc(N)c1Br,0.37
2,Cc1ccnc2c1NC(=O)c1cccnc1N2C1CC1 [BI-RG-587],0.69
3,"NS(=O)(=O)c1ccc(NC(=O)CSc2nc3ncccc3n2-c2ccc(C3CC3)c3ccccc23)c(Br)c1 [N-(2-Bromo-4-sulfonamido-phenyl)-2-(1-(4-cyclopropylnaphthalen-1-yl)-1H-imidazo[4,5-b]pyridin-2-ylthio)acetamide (12)]",1.5
